Results published in patent US20160015064A1, “COMPOUNDS, COMPOSITIONS, AND METHODS FOR MODULATING SWEET TASTE” (CHROMOCELL CORPORATION, priority 2013, published 2016).

Tested on: sweetness enhancement effect and off-taste in lemon-lime beverage
Assay: Sensory assessment / informal tasting of solubilized Compound 3 beverages
Format: in vivo
Conditions: sucrose co-melt
Method: For example, Compound 3 and polysorbate 80 were accurately weighed into screw-capped glass vials according to Table 9 and heated at 70-90° C. and vortex mixed to facilitate the solubilization. Q-[…]® was added to the 41.5 brix lemon-lime flavored beverage syrup. The polysorbate 80 mixtures were blended into 41.5 brix lemon-lime flavored beverage syrup with Q-[…]® 200 and vortex mixed at 3000 rpm for 75 seconds. The resulting syrups were stored overnight at room temperature. The syrup was then diluted with 5× water to achieve the final 7.7 brix lemon-lime beverage. […] Solution PQ2 was able to maintain clear solution for 1 month.
Because Q-[…]® was able to maintain the stability of the sweet enhancing compounds, it was evaluated in combination with additional solvents. […] In another example, Compound 3, Q-[…]®, and either 1,2-propylene glycol or ethanol 200 proof were accurately weighed into screw-capped glass vials according to Table 10 and heated and vortex mixed to facilitate the solubilization. The resulting solution mixtures were blended into 41.5 brix lemon-lime flavored beverage syrup and vortexed at 3000 rpm for 75 seconds. The resulting syrups were stored overnight at refrigerated temperature and diluted with 5× water to achieve the final 7.7 brix lemon-lime beverage. […]
The ability of sugar to co-melt with compounds of the invention was also evaluated. […]

## COc1ccc(C2CC(=O)c3c(O)cccc3O2)cc1O (single isomer, unassigned) [Compound 3, 5-hydroxy-2-(3-hydroxy-4-methoxyphenyl)chroman-4-one]
7.7 brix lemon-lime beverage
  Sweetness enhancement effect in final beverage (sensory assessment): maintained its sweetness enhancement effect
lemon-lime beverage
  Off-taste (informal tasting assay): perceptible off-taste
